Several values for one entry are separate records, joined by “and”; a condition that tells them apart may be missing. Identical values can stand only once. Like-named read-outs stand apart in the source and are kept apart here. Blank lines part the entries; values can stand above or below the compound they belong to.
Legend:
[1] = Mouse plasma protein binding; format: in vitro ADME
From the text: Table 1 Overview of compound potencies in multiple assays. | column: 1; 2; 3; 4; 5; 6

mouse thymocytes = assay: Mouse thymocyte apoptosis assay ex vivo; format: cell-based; settings: 26 hours, AnnexinV and 7AAD staining
Experimental: The thymus from a female C57BL/6NCrl (Charles River) mouse aged around 7 weeks was dissected out after giving the mouse a lethal i.p. injection of penthobarbital. Single cell suspension of thymocytes was prepared by disrupting the thymus through a 70 μm cell strainer with the top of a sterile 5 ml syringe plunger in DPBS (without Ca/Mg). Cells were filtered through a 40 μm cell strainer and washed in serum-free media before being resuspended in complete media (RPMI1640 with L-glutamine supplemented with 10% heat inactivated foetal bovine serum (FBS) (Gibco/Invitrogen) and 50 μM 2-mercaptoethanol (Gibco/Invitrogen).
Cells were seeded at 500 000 cells/well in 96-well plates (U-bottom, cat #3799, Corning, MA, USA) in the presence of compounds or DMSO and cultured for 26 hours (37°C, 5% CO2). The thymocytes were then washed twice in cold DPBS (without Ca/Mg) and stained with APC AnnexinV (#550475, BD Pharmingen, BD Biosciences, CA, USA) and 7AAD (#559925, BD Pharmingen) in AnnexinV Binding buffer (#556454, BD Pharmingen) for 15 minutes at RT (dark) in order to separate live cells from dead, early apoptotic and late apoptotic cells when analysed on the BD Accuri C6 (BD Biosciences, CA, USA).
The compound effect on the percentage of surviving cells relative to the DMSO control were calculated using the following formula; […]

IMQ model = settings: cited from earlier work
[2] = tested on: IL-17A production in primary human Th17 cells; assay: Primary human Th17 cell assay (IL-17A release); format: cell-based
Experimental: Peripheral blood mononuclear cells were isolated from heparin treated human whole blood from healthy donors by density gradient centrifugation. […] On day 4, supernatants were collected and IL-17A was measured using a Human IL-17A HTRF Assay kit (Cisbio/PerkinElmer, MA, USA) according to the manufacturer’s protocol.
Genedata Screener® software (Genedata, Inc., Basel, Switzerland) was used for data normalization, curve fitting and calculation of IC50 for IL-17A inhibition as well as for cell viability. Raw data from the Human IL-17A HTRF Assay and CellTiter-Glo® Luminescent Cell Viability assay was transformed to % effect according to the formula:
Compound % effect = 100*[(X-min)/(max-min)],
where X represents the effect in the presence of test compound. […] For the cell viability calculations, 2-(2,2-dicyclohexylethyl)piperidine at 10 μM was used as maximal toxicity control while DMSO was used as minimal toxicity control. A four-parameter logistic smart fit method in the Analyser application of the Genedata® Screener software was used for curve fitting of the % effect data and IC50 calculation.

[3] = target: T1, recombinant murine RORγt LBD (Mus musculus, UniProt P51450); assay: Murine RORγt radioligand competition binding assay; settings: for Mouse ligand binding Response (%): raw points of replicate experiments
T1 construct: 10nM purified HN-AVI-GST-TCS-mRORγ(aa256-516) was mixed with
T1 sequence (P51450 256-516): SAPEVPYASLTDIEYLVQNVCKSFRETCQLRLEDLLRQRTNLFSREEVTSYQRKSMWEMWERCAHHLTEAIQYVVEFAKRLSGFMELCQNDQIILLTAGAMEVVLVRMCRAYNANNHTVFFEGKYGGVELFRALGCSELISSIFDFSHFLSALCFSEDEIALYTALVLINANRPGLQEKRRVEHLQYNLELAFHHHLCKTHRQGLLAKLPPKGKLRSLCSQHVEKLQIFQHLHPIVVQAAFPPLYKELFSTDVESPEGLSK
Experimental: The assay was run in white/clear polystyrene flat-bottom 384-well plates (Greiner, cat. No. 781095). Assays were carried out in 40 μl reaction volumes. 0.125 μl of a fixed concentration range of test ligands dissolved in DMSO were added to assay plates using an acoustic liquid dispenser.
(§1) The raw data from the radio-ligand and co-factor recruitment assays were transformed to % effect using the equation:
(§2) Compound % effect = 100*[(X-min)/(max-min)]
(§3) where X represents the effect in the presence of test compound and max and min are the effects in presence of the maximum and minimum controls respectively.
(§4) The data was plotted to generate concentration response profiles and the concentration-response curves were fitted to the data using the non-linear regression analysis; 4 parameter logistic smart fit method in the Analyser application of the Genedata® Screener software (Genedata, Inc., Basel, Switzerland). […] Ki was calculated from the IC50 value using the equation Ki = IC50/1+[L]/Kd)

human RORα LBD = target: T2, human RORα LBD (Homo sapiens, UniProt P35398); assay: RORα co-factor recruitment assay; format: biochemical; settings: raw points; for RORa agonism Response (%): agonism mode; for RORa inverse agonism Response (%): inverse agonism mode
T2 construct: 180 nM Protein (His6-tcs-hRORαLBD)
T2 sequence (P35398 272-510 limits assumed): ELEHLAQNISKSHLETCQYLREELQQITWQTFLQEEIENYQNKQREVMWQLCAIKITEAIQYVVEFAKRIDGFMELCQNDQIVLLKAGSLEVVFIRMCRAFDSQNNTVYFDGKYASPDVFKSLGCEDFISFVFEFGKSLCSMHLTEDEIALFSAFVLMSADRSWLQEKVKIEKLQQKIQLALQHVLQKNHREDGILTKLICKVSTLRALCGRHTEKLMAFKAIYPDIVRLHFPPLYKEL
Experimental: The assay was run in black 384 well plates (Greiner: 784900). A 0.2 μl volume of a fixed concentration range of test ligands dissolved in DMSO were added to assay plates using an acoustic liquid dispenser. Two pre-mixes were prepared in falcon tubes. Pre-mix 1 comprised 180 nM Protein (His6-tcs-hRORαLBD) and 8 nM Lance Eu-W1024-anti 6xHis in assay buffer, 50 mM Hepes pH7.4, 100 mM NaCl, 0.1% (w/v) BSA, 1 mM TCEP which was incubated for 30 minutes at room temperature before dispensing 10 μl to assay plates. Then, pre-mix 2 comprising 200 nM biotinylated PGC1alpha peptide and 50 nM streptavidin APC in assay buffer, was prepared and incubated for 30 minutes at room temperature before adding 10 μl to assay plates containing test compound and premix 1. Plates were incubated at room temperature for 1 hour in the dark, prior to reading in a Pherastar multi-mode plate reader (BMG LABTECH) using HTRF filter set (ex 320 nm, em 612 and 665 nm). The FRET signal at 665 nm was divided by the signal at 612 nm and multiplied by 10,000 to generate a signal ratio value for each well.
as §1, §2, §3, §4

thymocyte numbers = settings: bi-daily administration of 10 mg/kg, after two days; cited from earlier work
thymic lymphomas [4] = settings: mice; cited from earlier work
thymic lymphomas [5] = settings: rats; cited from earlier work
[6] = target: T3, recombinant human RORγt LBD (Homo sapiens, UniProt P51449); assay: Human RORγt radioligand competition binding assay
T3 sequence (P51449 258-518): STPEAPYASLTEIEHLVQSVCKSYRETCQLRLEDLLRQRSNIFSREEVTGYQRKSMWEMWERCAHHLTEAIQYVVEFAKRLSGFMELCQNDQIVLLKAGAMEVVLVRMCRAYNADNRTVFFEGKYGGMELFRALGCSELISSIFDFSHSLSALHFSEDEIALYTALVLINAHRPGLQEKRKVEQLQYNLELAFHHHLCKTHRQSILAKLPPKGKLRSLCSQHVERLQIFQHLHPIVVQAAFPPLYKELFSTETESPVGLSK
Experimental: The assay was run in white polystyrene flat-bottom 384-well plates (Greiner, cat. No. 781075). Assays were carried out in 40 μl reaction volumes. A concentration range of test ligands in 0.4 μl of DMSO were added to assay plates using an acoustic liquid dispenser. […] Test plates were incubated for 16 hours and read using a LEADseeker (GE Healthcare, USA) Multimodality imaging instrument.
as §1, §2, §3, §4

[7] = tritiated ligand, used for Ki calculation

- Mouse PPB (% unbound) [1]: 18.6 (1) %
- Mouse ligand binding Response (%) ([3]; -LOG10(Concentration) 5): -100.443% and -98.9%
- Mouse ligand binding Response (%) ([3]; -LOG10(Concentration) 5.5): -97.044% and -97.709% and -95.886%
- Mouse ligand binding Response (%) ([3]; -LOG10(Concentration) 6): -90.54% and -92.979% and -82.118%
- Mouse ligand binding Response (%) ([3]; -LOG10(Concentration) 6.5): -75.979% and -75.927%
- Mouse ligand binding Response (%) ([3]; -LOG10(Concentration) 7): -66.593% and -61.493% and -41.548%
- Mouse ligand binding Response (%) ([3]; -LOG10(Concentration) 7.5): -41.39% and -32.816% and -24.196%
- Mouse ligand binding Response (%) ([3]; -LOG10(Concentration) 8): -17.738% and -1.711% and -32.373%
- Mouse ligand binding Response (%) ([3]; -LOG10(Concentration) 8.5): -14.117% and 14.175%
- Mouse ligand binding Response (%) ([3]; -LOG10(Concentration) 9): -4.804% and 10.02% and -17.221%
- Mouse ligand binding Response (%) ([3]; -LOG10(Concentration) 9.5): -4.804% and 5.051% and -11.899%
- RORa agonism Response (%) (human RORα LBD; -LOG10(Concentration) 4.5): 151.862%
- RORa agonism Response (%) (human RORα LBD; -LOG10(Concentration) 5): 149.498%
- RORa agonism Response (%) (human RORα LBD; -LOG10(Concentration) 5.5): 136.244%
- RORa agonism Response (%) (human RORα LBD; -LOG10(Concentration) 6): 110.728%
- RORa agonism Response (%) (human RORα LBD; -LOG10(Concentration) 6.5): 68.027%
- RORa agonism Response (%) (human RORα LBD; -LOG10(Concentration) 7): 28.348%
- RORa agonism Response (%) (human RORα LBD; -LOG10(Concentration) 7.5): 7.215%
- RORa agonism Response (%) (human RORα LBD; -LOG10(Concentration) 8): 11.627%
- RORa agonism Response (%) (human RORα LBD; -LOG10(Concentration) 8.5): 1.827%
- RORa agonism Response (%) (human RORα LBD; -LOG10(Concentration) 9): 1.839%
- RORa inverse agonism Response (%) (human RORα LBD; -LOG10(Concentration) 4.5): 135.32%
- RORa inverse agonism Response (%) (human RORα LBD; -LOG10(Concentration) 5): 141.906%
- RORa inverse agonism Response (%) (human RORα LBD; -LOG10(Concentration) 5.5): 137.911%
- RORa inverse agonism Response (%) (human RORα LBD; -LOG10(Concentration) 6): 125.139%
- RORa inverse agonism Response (%) (human RORα LBD; -LOG10(Concentration) 6.5): 92.31%
- RORa inverse agonism Response (%) (human RORα LBD; -LOG10(Concentration) 7): 46.105%
- RORa inverse agonism Response (%) (human RORα LBD; -LOG10(Concentration) 7.5): 12.144%
- RORa inverse agonism Response (%) (human RORα LBD; -LOG10(Concentration) 8): 1.673%
- RORa inverse agonism Response (%) (human RORα LBD; -LOG10(Concentration) 8.5): -4.289%
- RORa inverse agonism Response (%) (human RORα LBD; -LOG10(Concentration) 9): -3.197%
Structure (SMILES): CC(=O)N1Cc2cc(S(C)(=O)=O)ccc2[C@@H]1C(=O)Nc1ccc(C(O)(C(F)(F)F)C(F)(F)F)cc1 [Compound 5]
- Thymocyte apoptosis (mouse thymocytes): 6.6 ± 0.1 (4)
- ear thickness (IMQ model; IMQ model): significantly but partially reduced
- effect in the IMQ model (IMQ model; repeated daily dosing of 15 mg/kg): a larger effect
- Human Th17 Response (%) ([2]; -LOG10(Concentration) 6.5, single points per experiment): -83.16% and -87.655% and -78.367% and -82.722%
- Human IL-17A in Th17 cells ([2]; IL-17A in supernatants after 4 days): 7.8 ± 0.2 (45)
- effect on thymocyte numbers (thymocyte numbers): did not have a significant effect

Structure (SMILES): C[C@H]1C[C@H](C(=O)O)CC[C@H]1C(=O)N1CC[C@@]2(S(=O)(=O)c3ccc(F)cc3)c3ccc(C(F)(C(F)(F)F)C(F)(F)F)cc3CC[C@@H]12 [BMS-986251]
- thymic lymphomas (thymic lymphomas [4]): thymic lymphomas
- thymic lymphomas (thymic lymphomas [5]): thymic lymphomas

- IC50 ([3]; the ligand that is used tritiated as radioligand, n = 3): 123 nM
- Kd [3, 7]: 45 nM
- IC50 ([6]; the ligand that is used tritiated as radioligand, n = 6): 47.9 nM
- Kd [6, 7]: 17 nM
Structure (SMILES): CCS(=O)(=O)c1ccc(CC(=O)Nc2cc(-c3ccccc3COC)cs2)cc1 [2-(4-(ethylsulfonyl)phenyl)-N-(4-(2-(methoxymethyl)phenyl)thiophen-2-yl)acetamide, reference compound]

— publication PMC11737796 (PLOS ONE, 2025)
